# Earlier results, collected in patent US8703719B1, “Method and composition for improved muscle performance” (Bio-Engineered Supplements and Nutrition, Inc., priority 2009, dated 2014).
# Conditions: oral; weight training individuals
smiles,measurement,value
"C[N+](C)(C)CC(=O)[O-] [trimethylglycine (betaine), Trimethylglycine]",increase in bench-throw power compared with placebo,16%
same,increase in isometric bench-press force compared with placebo,28%
